Measured values reported in patent US20100047371A1, “COMPOSITIONS AND METHODS FOR ORAL CANCER CHEMOPREVENTION USING BERRY PREPARATIONS AND EXTRACTS” (priority 2006, published 2010).

Assays:
[1] = Human pharmacokinetic study: anthocyanins in saliva and peripheral blood after topical gel application; assay type: in vivo; settings: for Anthocyanin concentration in saliva / Anthocyanin concentration in peripheral blood: 1.0 g 5% FBR Gel, pH 6.5 topical to floor of mouth; for Anthocyanin concentration in saliva: saliva collected 2-5 min after application; for Anthocyanin concentration in peripheral blood: blood drawn five minutes after application
Procedure: Anthocyanin content in sera, saliva, and tissue explants was evaluated by an HPLC-MS assay. The respective samples (sera, saliva or tissue homogenates) were dissolved in 90% solvent A (water plus 1% formic acid) and 10% solvent B (acetonitrile plus 1% formic acid) and then separated on a Symmetry C18 reversed-phase column and analyzed using a Waters 2695 gradient HPLC separation module equipped with a 996 photodiode-array (PDA) UV/visible absorbance detector (Milford, Mass.). The solvent system consisted of a step gradient from 90% A to 50% B over 15 minutes, and the absorption spectra were recorded from 200-800 nm with the inline PDA detector. Mass spectrometry was conducted on a quadrupole ion tunnel mass spectrometer equipped with a Z-spray ESI source. Explant protein levels were determined by the Lowry method, using bovine γ-globulin as the standard protein [Lippman et al., 1993].
Next, evaluation of anthocyanin uptake into human oral mucosa from FBR gels prepared as described in Example 1 was undertaken. For in-vivo studies, participation of human subjects was conducted in accordance with an IRB approved protocol. […] For the phamacokinetic analyses, nine consenting adult volunteers dried the anterior floor of their mouth, placed 1.0 g of 5% berry gel (pH 6.5), and massaged the gel in place for 30 seconds to facilitate uptake. Two minutes after gel application saliva was collected for the next three minutes. Peripheral blood was drawn five minutes after gel application. Following clotting, sera samples were collected, and both the sera and saliva samples were stored at −80° C. until LC-MS analysis as described below.
All nine participants had detectable anthocyanin levels of three anthocyanins (cyanidin 3-rutinoside, cyanidin 3-xylosylrutinoside, cyanidin 3-glucoside) in either their saliva or blood, and 4 donors had detectable levels of two anthocyanins (cyanidin 3-rutinoside and cyanidin 3-xylosylrutinoside) in their peripheral blood. Saliva from eight of the nine donors contained detectable levels of either two (cyanidin 3-rutinoside and cyanidin 3-xylosylrutinoside-4 donors) or three anthocyanins (4 donors).

[2] = system: Human Oral Mucosa Explant Tissues; experiment: Effect of final gel pH on anthocyanin uptake into human oral mucosa explant tissues; assay type: in vitro ADME; settings: 10% w/w FBR gel
Procedure: Anthocyanin content in sera, saliva, and tissue explants was evaluated by an HPLC-MS assay. The respective samples (sera, saliva or tissue homogenates) were dissolved in 90% solvent A (water plus 1% formic acid) and 10% solvent B (acetonitrile plus 1% formic acid) and then separated on a Symmetry C18 reversed-phase column and analyzed using a Waters 2695 gradient HPLC separation module equipped with a 996 photodiode-array (PDA) UV/visible absorbance detector (Milford, Mass.). The solvent system consisted of a step gradient from 90% A to 50% B over 15 minutes, and the absorption spectra were recorded from 200-800 nm with the inline PDA detector. Mass spectrometry was conducted on a quadrupole ion tunnel mass spectrometer equipped with a Z-spray ESI source. Explant protein levels were determined by the Lowry method, using bovine γ-globulin as the standard protein [Lippman et al., 1993]. Tissue explants, specifically human oral mucosal explants, were used to determine the in vitro effects of FBR content and pH on anthocyanin uptake. Human oral tissues for the tissue explant studies were obtained from consenting volunteers who were undergoing elective oral surgery procedures. To confirm “no pathologic diagnosis”, a portion of each of these tissues was submitted for light microscopic evaluation. […] Tissues for explant experiments were immediately placed in an artificial saliva transport medium, which also served as the incubation medium for the gel absorption studies. The composition of the artificial saliva used for tissue transport and incubation was (final concentrations): sodium carboxymethylcellulose (0.5%), sorbitol (165 mM), NaCl (14 mM), KCl (16 mM), calcium chloride dehydrate (1.0 mM), MgCl2 (0.63 mM), Trizma hydrochloride (2.0 mM). Tissues from eight donors were used for preliminary studies to compare the penetration of anthocyanins from the 5% berry gel and the 10% FBR gel, both at a final pH of 6.5. In order to account for heterogeneity among human donors, tissue samples were hemisected. One tissue portion treated with 5% and the other with 10% FBR gels. One gram of gel (containing either 5% or 10% w/w FBR) was placed on the epithelial surface of the explant, followed by gently rubbing of the site for 30 seconds to facilitate uptake. Explants were then placed into artificial saliva, incubated for 30 minutes (37° C., 5% CO2), and then frozen at −80° C. until HPLC-mass spectroscopy analyses as previously reported [Rodrigo et al., in press]. Tissue preparation for HPLC analyses consisted of homogenization of the entire oral mucosal specimen, removal of an aliquot for sample protein level determination, followed by the addition of collagenase type II (0.1 mg/mL, GIBCO, Grand Island, N.Y.) and 1% formic acid. Samples were then placed on a Sep Pack (Millipore, Billerica, Mass.), eluted with methanol, and dried under argon gas. Additional oral mucosal explant studies were conducted to compare the effect of FBR gel pH on absorption into oral mucosal explants. Tissues from eleven donors were used for these studies, and handling was as described above with the exception that all gels contained 10% w/w FBR and were formulated at a final pH of 3.5 or 6.5. […] Large differences (up to 15-fold) in detectable anthocyanin levels were found in the gel treated donor tissues; findings that likely reflect the extensive heterogeneity within human tissues that affects tissue penetrative abilities.

[3] = average of eleven explant samples

With `CC1OC(OCC2OC(Oc3cc4c(O)cc(O)cc4[o+]c3-c3ccc(O)c(O)c3)C(OC3OCC(O)C(O)C3O)C(O)C2O)C(O)C(O)C1O` (stereo not drawn) [cyanidin 3-xylosylrutinoside] the “number of donors with detectable levels in peripheral blood” value ([1]; of nine participants, 5% berry gel (pH 6.5), five minutes after application) was 4 donors, the “Anthocyanin concentration in saliva” value ([1]; patient 101) was 2.0 pmol/mL and the “Anthocyanin concentration in saliva” value ([1]; patient 102) was 0.5 pmol/mL. For the same compound, the “Anthocyanin concentration in peripheral blood” value ([1]; patient 103) was 0.6 pmol/mL, the “Anthocyanin concentration in saliva” value ([1]; patient 104) was 1.5 pmol/mL and the “Anthocyanin concentration in peripheral blood” value ([1]; patient 105) was 1.1 pmol/mL. The “Anthocyanin concentration in saliva” value ([1]; patient 105) was 2.3 pmol/mL, the “Anthocyanin concentration in peripheral blood” value ([1]; patient 106) was 0.8 pmol/mL and the “Anthocyanin concentration in saliva” value ([1]; patient 106) was 1.9 pmol/mL. The “Anthocyanin concentration in peripheral blood” value ([1]; patient 107) was 1.3 pmol/mL, the “Anthocyanin concentration in saliva” value ([1]; patient 107) was 1.7 pmol/mL and the “Anthocyanin concentration in saliva” value ([1]; patient 108) was 1.0 pmol/mL. The “Anthocyanin concentration in saliva” value ([1]; patient 109) was 1.2 pmol/mL, the “Anthocyanin uptake, Gel pH 3.5, Avg. ± SEM” value [2, 3] was 5.4 pmol per mg tissue and the “Anthocyanin uptake, Gel pH 6.5, Avg. ± SEM” value [2, 3] was 17.4 pmol per mg tissue. The “% change 3.5 to 6.5, Avg. ± SEM” value ([2]; average of explant samples) was 140.6%, the “% change 3.5 to 6.5” value ([2]; explant sample 001) was 522.5% and the “Anthocyanin uptake, Gel pH 3.5” value ([2]; explant sample 001) was 14.2 pmol per mg tissue. For the same compound, the “Anthocyanin uptake, Gel pH 6.5” value ([2]; explant sample 001) was 88.1 pmol per mg tissue, the “% change 3.5 to 6.5” value ([2]; explant sample 002) was 747.1% and the “Anthocyanin uptake, Gel pH 3.5” value ([2]; explant sample 002) was 1.2 pmol per mg tissue. The “Anthocyanin uptake, Gel pH 6.5” value ([2]; explant sample 002) was 10.3 pmol per mg tissue, the “% change 3.5 to 6.5” value ([2]; explant sample 003) was 12.1% and the “Anthocyanin uptake, Gel pH 3.5” value ([2]; explant sample 003) was 5.7 pmol per mg tissue. For the same compound, the “Anthocyanin uptake, Gel pH 6.5” value ([2]; explant sample 003) was 6.4 pmol per mg tissue, the “% change 3.5 to 6.5” value ([2]; explant sample 004) was −65.1% and the “Anthocyanin uptake, Gel pH 3.5” value ([2]; explant sample 004) was 3.6 pmol per mg tissue. The “Anthocyanin uptake, Gel pH 6.5” value ([2]; explant sample 004) was 1.3 pmol per mg tissue, the “% change 3.5 to 6.5” value ([2]; explant sample 005) was −45.9% and the “Anthocyanin uptake, Gel pH 3.5” value ([2]; explant sample 005) was 0.9 pmol per mg tissue. For the same compound, the “Anthocyanin uptake, Gel pH 6.5” value ([2]; explant sample 005) was 0.5 pmol per mg tissue, the “% change 3.5 to 6.5” value ([2]; explant sample 006) was 258.5% and the “Anthocyanin uptake, Gel pH 3.5” value ([2]; explant sample 006) was 9.9 pmol per mg tissue. The “Anthocyanin uptake, Gel pH 6.5” value ([2]; explant sample 006) was 35.5 pmol per mg tissue, the “% change 3.5 to 6.5” value ([2]; explant sample 007) was −9.4% and the “Anthocyanin uptake, Gel pH 3.5” value ([2]; explant sample 007) was 1.1 pmol per mg tissue. For the same compound, the “Anthocyanin uptake, Gel pH 6.5” value ([2]; explant sample 007) was 1.0 pmol per mg tissue, the “Anthocyanin uptake, Gel pH 3.5” value ([2]; explant sample 008) was 0.0 pmol per mg tissue and the “Anthocyanin uptake, Gel pH 6.5” value ([2]; explant sample 008) was 6.3 pmol per mg tissue. For the same compound, the “% change 3.5 to 6.5” value ([2]; explant sample 009) was 318.4%, the “Anthocyanin uptake, Gel pH 3.5” value ([2]; explant sample 009) was 9.9 pmol per mg tissue and the “Anthocyanin uptake, Gel pH 6.5” value ([2]; explant sample 009) was 41.3 pmol per mg tissue. For the same compound, the “% change 3.5 to 6.5” value ([2]; explant sample 010) was −91.9%, the “Anthocyanin uptake, Gel pH 3.5” value ([2]; explant sample 010) was 6.7 pmol per mg tissue and the “Anthocyanin uptake, Gel pH 6.5” value ([2]; explant sample 010) was 0.5 pmol per mg tissue. For the same compound, the “% change 3.5 to 6.5” value ([2]; explant sample 011) was −100%, the “Anthocyanin uptake, Gel pH 3.5” value ([2]; explant sample 011) was 6.0 pmol per mg tissue and the “Anthocyanin uptake, Gel pH 6.5” value ([2]; explant sample 011) was 0.00 pmol per mg tissue.
